Measurements taken from patent publication US20240168030A1, “DIRECT FLUORESCENT GLYCAN LABELING” (BIO-TECHNE CORPORATION, priority 2019, published 2024).

T1: ST3Gal1 (Homo sapiens, UniProt Q11201)
T1 construct: purchased R&D Systems (Bio-Techne, Minneapolis, MN)
T1 sequence (Q11201 1-340): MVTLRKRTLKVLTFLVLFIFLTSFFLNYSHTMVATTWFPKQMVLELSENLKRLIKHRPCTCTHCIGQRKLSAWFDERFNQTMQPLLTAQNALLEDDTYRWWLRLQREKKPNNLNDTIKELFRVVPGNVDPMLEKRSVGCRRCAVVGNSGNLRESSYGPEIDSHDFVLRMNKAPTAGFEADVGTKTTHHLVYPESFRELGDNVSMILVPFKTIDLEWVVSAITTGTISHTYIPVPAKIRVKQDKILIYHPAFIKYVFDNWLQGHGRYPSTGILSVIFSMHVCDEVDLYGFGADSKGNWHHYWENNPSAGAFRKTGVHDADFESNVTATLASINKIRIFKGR

T2: ST3Gal2 (Homo sapiens, UniProt Q16842)
T2 construct: purchased R&D Systems (Bio-Techne, Minneapolis, MN)
T2 sequence (Q16842 1-350): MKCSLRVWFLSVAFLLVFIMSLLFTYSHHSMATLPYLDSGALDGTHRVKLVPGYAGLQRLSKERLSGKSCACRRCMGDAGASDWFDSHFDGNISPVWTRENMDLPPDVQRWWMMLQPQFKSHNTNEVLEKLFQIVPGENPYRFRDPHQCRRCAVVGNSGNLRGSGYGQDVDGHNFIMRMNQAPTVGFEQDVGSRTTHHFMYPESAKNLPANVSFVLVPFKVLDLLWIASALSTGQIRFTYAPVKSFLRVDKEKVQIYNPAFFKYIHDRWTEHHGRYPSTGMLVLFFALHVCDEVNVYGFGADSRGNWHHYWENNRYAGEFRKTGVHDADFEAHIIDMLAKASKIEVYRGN

T3: ST3Gal4 (Homo sapiens, UniProt Q11206)
T3 construct: purchased R&D Systems (Bio-Techne, Minneapolis, MN)
T3 sequence (Q11206 1-333): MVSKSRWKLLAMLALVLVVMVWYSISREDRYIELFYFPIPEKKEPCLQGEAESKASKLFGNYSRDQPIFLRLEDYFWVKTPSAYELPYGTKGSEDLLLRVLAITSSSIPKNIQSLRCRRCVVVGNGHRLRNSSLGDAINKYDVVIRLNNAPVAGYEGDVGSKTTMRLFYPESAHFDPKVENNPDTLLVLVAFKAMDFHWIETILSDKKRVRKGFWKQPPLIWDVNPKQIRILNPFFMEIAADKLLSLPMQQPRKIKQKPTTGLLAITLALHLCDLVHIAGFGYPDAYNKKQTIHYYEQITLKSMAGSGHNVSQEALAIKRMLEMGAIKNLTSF

T4: ST6Gal1 (Homo sapiens, UniProt P15907)
T4 construct: purchased R&D Systems (Bio-Techne, Minneapolis, MN)
T4 sequence (P15907 1-406): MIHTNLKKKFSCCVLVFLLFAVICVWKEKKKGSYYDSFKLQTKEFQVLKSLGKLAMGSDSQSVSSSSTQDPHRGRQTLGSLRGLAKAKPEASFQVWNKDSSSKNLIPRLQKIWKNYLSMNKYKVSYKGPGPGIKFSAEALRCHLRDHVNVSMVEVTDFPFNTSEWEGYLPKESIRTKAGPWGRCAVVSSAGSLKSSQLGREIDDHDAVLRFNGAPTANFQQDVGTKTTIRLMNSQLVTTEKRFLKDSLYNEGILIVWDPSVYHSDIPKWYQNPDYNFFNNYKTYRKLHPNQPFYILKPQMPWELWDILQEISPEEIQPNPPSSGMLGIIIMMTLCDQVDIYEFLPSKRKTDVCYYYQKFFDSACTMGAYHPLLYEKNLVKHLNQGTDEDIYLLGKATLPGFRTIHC

T5: ST6GalNAc1 (Homo sapiens, UniProt Q9NSC7)
T5 construct: purchased R&D Systems (Bio-Techne, Minneapolis, MN)
T5 sequence (Q9NSC7 1-600): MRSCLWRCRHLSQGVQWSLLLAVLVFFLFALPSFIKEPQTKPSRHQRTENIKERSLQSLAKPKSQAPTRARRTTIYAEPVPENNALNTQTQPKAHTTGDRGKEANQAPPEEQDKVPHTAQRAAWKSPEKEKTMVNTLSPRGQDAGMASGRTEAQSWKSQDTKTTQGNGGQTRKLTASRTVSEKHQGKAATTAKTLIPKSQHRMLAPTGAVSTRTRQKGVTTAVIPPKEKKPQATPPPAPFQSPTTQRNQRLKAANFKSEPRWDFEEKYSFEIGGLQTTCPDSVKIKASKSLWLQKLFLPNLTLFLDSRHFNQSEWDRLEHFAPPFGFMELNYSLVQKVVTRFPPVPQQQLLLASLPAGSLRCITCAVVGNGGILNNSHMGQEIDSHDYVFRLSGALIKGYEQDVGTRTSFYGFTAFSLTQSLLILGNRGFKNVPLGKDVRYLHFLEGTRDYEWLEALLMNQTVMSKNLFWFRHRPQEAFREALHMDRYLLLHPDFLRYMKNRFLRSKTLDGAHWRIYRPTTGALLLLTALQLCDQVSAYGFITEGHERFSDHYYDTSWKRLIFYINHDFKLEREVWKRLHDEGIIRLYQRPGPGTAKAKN

T6: ST6GalNAc2 (Homo sapiens, UniProt Q9UJ37)
T6 sequence (Q9UJ37 1-374): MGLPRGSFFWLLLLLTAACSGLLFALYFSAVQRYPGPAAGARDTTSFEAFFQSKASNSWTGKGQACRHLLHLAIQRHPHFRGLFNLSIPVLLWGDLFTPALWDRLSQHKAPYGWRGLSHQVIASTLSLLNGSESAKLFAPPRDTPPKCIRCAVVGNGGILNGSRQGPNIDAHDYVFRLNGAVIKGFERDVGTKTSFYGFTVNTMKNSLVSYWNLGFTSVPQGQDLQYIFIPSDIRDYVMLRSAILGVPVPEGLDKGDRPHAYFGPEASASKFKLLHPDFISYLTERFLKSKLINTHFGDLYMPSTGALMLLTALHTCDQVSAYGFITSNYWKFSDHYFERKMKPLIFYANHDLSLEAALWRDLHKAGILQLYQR

T7: ST6GalNAc4 (Homo sapiens, UniProt Q9H4F1)
T7 construct: purchased R&D Systems (Bio-Techne, Minneapolis, MN)
T7 sequence (Q9H4F1 1-302): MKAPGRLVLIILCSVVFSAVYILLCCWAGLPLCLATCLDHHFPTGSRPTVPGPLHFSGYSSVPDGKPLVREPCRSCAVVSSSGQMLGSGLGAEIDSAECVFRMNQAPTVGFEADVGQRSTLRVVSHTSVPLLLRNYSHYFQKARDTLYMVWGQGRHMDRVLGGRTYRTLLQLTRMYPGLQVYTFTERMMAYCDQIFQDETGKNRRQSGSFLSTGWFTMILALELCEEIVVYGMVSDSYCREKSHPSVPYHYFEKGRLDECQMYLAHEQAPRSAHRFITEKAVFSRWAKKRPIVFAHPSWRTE


Legend:
[1] = target: T1, ST3Gal1; test: Direct fluorescent glycan labeling (DFGL) with fluorophore-conjugated sialic acid by ST3Gal1; assay type: biochemical; design: key to Relative tolerance of the fluorophore by ST3Gal1: +++: indicated by + and − signs only; ++: indicated by + and − signs only; indicated by + and − signs only; indicated by + and − signs only; conditions: fluorophore-conjugated sialic acid donor; acceptor Gal of Core-1 O-glycan; fluorescence intensity of labeled fetuin or asialofetuin in FIG. 2
[2] = target: T2, ST3Gal2; test: DFGL with fluorophore-conjugated sialic acid by ST3Gal2; assay type: biochemical; design: key: +++: indicated by + and − signs only; ++: indicated by + and − signs only; indicated by + and − signs only; indicated by + and − signs only; conditions: fluorophore-conjugated sialic acid donor; acceptor Gal of Core-1 O-glycan; fluorescence intensity of labeled fetuin or asialofetuin in FIG. 2
[3] = target: T3, ST3Gal4; test: DFGL with fluorophore-conjugated sialic acid by ST3Gal4; assay type: biochemical; design: key: +++: indicated by + and − signs only; ++: indicated by + and − signs only; indicated by + and − signs only; indicated by + and − signs only; conditions: fluorophore-conjugated sialic acid donor; acceptor Gal of N-glycan; fluorescence intensity of labeled fetuin or asialofetuin in FIG. 2
[4] = target: T4, ST6Gal1; test: DFGL with fluorophore-conjugated sialic acid by ST6Gal1; assay type: biochemical; design: key to Relative tolerance of the fluorophore by ST6Gal1: +++: indicated by + and − signs only; ++: indicated by + and − signs only; indicated by + and − signs only; indicated by + and − signs only; conditions: fluorophore-conjugated sialic acid donor; acceptor Gal of N-glycan; fluorescence intensity of labeled fetuin or asialofetuin in FIG. 2
[5] = target: T5, ST6GalNAc1; test: DFGL with fluorophore-conjugated sialic acid by ST6GalNAc1; assay type: biochemical; design: key: +++: indicated by + and − signs only; ++: indicated by + and − signs only; indicated by + and − signs only; indicated by + and − signs only; conditions: fluorophore-conjugated sialic acid donor; acceptor O-GalNAc, sialylation on terminal Gal is flexible; FIG. 2
[6] = target: T6, ST6GalNAc2; test: DFGL with fluorophore-conjugated sialic acid by ST6GalNAc2; assay type: biochemical; design: key: +++: indicated by + and − signs only; ++: indicated by + and − signs only; indicated by + and − signs only; indicated by + and − signs only; conditions: fluorophore-conjugated sialic acid donor; acceptor O-GalNAc, sialylation on terminal Gal is flexible; FIG. 2
[7] = target: T7, ST6GalNAc4; test: DFGL with fluorophore-conjugated sialic acid by ST6GalNAc4; assay type: biochemical; design: key to Relative tolerance of the fluorophore by ST6GalNAc4: +++: indicated by + and − signs only; ++: indicated by + and − signs only; indicated by + and − signs only; indicated by + and − signs only
[8] = test system: fetuin and asialofetuin; test: PNGase F and FUCA1 treatment of labeled fetuin and asialofetuin; assay type: biochemical, bovine; conditions: Cy5, FIG. 18B
Protocol: FIG. 18A-FIG. 18B show characterization of the labeled glycans on fetuin (Fet) and asialofetuin (AF) with PNGase F and FUCA1. FIG. 18A. PNGase F treatment of the labeled samples. […] Fet was labeled by FUT7 (F7) with Alexa Fluor® 488 (blue). Labeled samples were then treated with PNGase F to release the glycans. FIG. 18B. Effect of FUCA1 on the labeling. Samples without or with FUCA1 treatment were labeled by the indicated enzymes with Cy5. All samples were separated on 15% SDS-PAGE and imaged by silver staining, TCE staining and fluorescent imaging as indicated. M, Western blot molecular marker.
For a typical labeling reaction, 1 μg to 5 μg target protein was mixed with 0.2 nmol fluorophore-conjugated GDP-fucose and 0.2 μg of a fucosyltransferase in 30μL 25 mM Tris pH 7.5, 10 mM MnCl2. The mixture was incubated at 37° C. for 30 minutes. […] To release labeled glycans from a glycoprotein, the sample was first denatured by heating at 95° C. for two minutes in the presence of 0.5% SDS and 80 mM β-mercaptoethanol and then renatured with 1% Triton X-100, and finally treated with PNGase F at 10:1 mass ratio at 37° C. for 20 minutes. To release glycans from antibody, a sample was directly treated with Endo S at 10:1 mass ratio at 37° C. for 20 minutes. All samples were separated by sodium dodecyl sulfate—polyacrylamide gel electrophoresis (SDS-PAGE) at volts/cm. […]

Change of labeling on FUT7 labeled fetuin after the treatment [8] | Molecule | Relative tolerance of the fluorophore by ST3Gal1 [1] | Relative tolerance of the fluorophore by ST3Gal2 [2] | Relative tolerance of the fluorophore by ST3Gal4 [3] | Relative tolerance of the fluorophore by ST6Gal1 [4] | Relative tolerance of the fluorophore by ST6GalNAc1 [5] | Relative tolerance of the fluorophore by ST6GalNAc2 [6] | Fluorophore preference of ST6GalNAc4 ([7]; Alexa Fluor® 555 over Cy5, FIG. 2) | Relative tolerance of the fluorophore by ST6GalNAc4 ([7]; fluorophore-conjugated sialic acid donor, acceptor O-GalNAc, with sialylated terminal Gal, FIG. 2)
– | cytidine monophosphate activated Alexa-Fluor® 555-conjugated sialic acid [CMP-AF555-SA] | ++ | +++ | ++ | ++ | ++ | + | strong preference | +++
two-fold increase | FUCA1: a lysosomal enzyme that hydrolyze α-fucose residues from glycans (protein, UniProt P04066 32-466, looked up) Tissue alpha-L-fucosidase: QPPRRYTPDWPSLDSRPLPAWFDEAKFGVFIHWGVFSVPAWGSEWFWWHWQGEGRPQYQRFMRDNYPPGFSYADFGPQFTARFFHPEEWADLFQAAGAKYVVLTTKHHEGFTNWPSPVSWNWNSKDVGPHRDLVGELGTALRKRNIRYGLYHSLLEWFHPLYLLDKKNGFKTQHFVSAKTMPELYDLVNSYKPDLIWSDGEWECPDTYWNSTNFLSWLYNDSPVKDEVVVNDRWGQNCSCHHGGYYNCEDKFKPQSLPDHKWEMCTSIDKFSWGYRRDMALSDVTEESEIISELVQTVSLGGNYLLNIGPTKDGLIVPIFQERLLAVGKWLSINGEAIYASKPWRVQWEKNTTSVWYTSKGSAVYAIFLHWPENGVLNLESPITTSTTKITMLGIQGDLKWSTDPDKGLFISLPQLPPSAVPAEFAWTIKLTGVK | – | – | – | – | – | – | – | –
